Assay results from the NIST ThermoML archive (doi:10.1021/je600559q).

Legend:
[1] = Liquid
[2] = refractive index (Na D-line) (dimensionless); conditions: 293.1 K; 101.33 kPa; Liquid; Standard Abbe refractometry

CC1CCCCC1O (configuration not stated) [2-methylcyclohexanol]
[1]
Conditions	vapor or sublimation pressure [kPa]
361.23 K	5.394
362.23 K	5.668
363.13 K	5.919
365.7 K	6.693
367.68 K	7.345
369.92 K	8.152
371.63 K	8.817
373.16 K	9.448
375.31 K	10.4
377.78 K	11.58
380.39 K	12.94
383.11 K	14.52
385.95 K	16.32
386.1 K	16.42
389.56 K	18.86
393.07 K	21.65
395.88 K	24.1
398.52 K	26.6
402.67 K	30.99
406.67 K	35.73
410.73 K	41.11
414 K	45.9
418.26 K	52.85
424.63 K	64.66
439.57 K	100.47

Conditions	refractive index
[2]	1.46313

CC(=O)OC1CCCCC1C (configuration not stated) [2-methylcyclohexyl acetate]
[1]
Conditions	vapor or sublimation pressure [kPa]
368.01 K	5.32
369.86 K	5.758
371.87 K	6.261
373.83 K	6.787
376.56 K	7.594
379.93 K	8.675
383.36 K	9.912
386.65 K	11.22
391.27 K	13.32
393.39 K	14.38
394.15 K	14.77
398.42 K	17.2
401.6 K	19.19
403.3 K	20.34
405.73 K	22.08
410.71 K	26.01
415.57 K	30.39
418.74 K	33.54
421.2 K	36.16
423.84 K	39.17
426.54 K	42.45
429.41 K	46.21
433.2 K	51.55
440.4 K	63.09
458 K	100.13

Conditions	refractive index
[2]	1.43896
